pIC50: −log10 of the molar value.
Tests used:
Type in all cases: cell-based
[1] = test system: NCI-H1975 (EGFR L858R/T790M double mutant); assay: Test 1: EGFR L858R/T790M (EGFR double mutant) cell proliferation test; conditions: Homo sapiens; NCI-H1975 cells, 72 hours, Cell Titer-Glo
Protocol: Test 1: EGFR L858R/T790M (EGFR Double Mutant) Cell Proliferation Test
The human lung cell line NCI-H1975 (EGFR L858R/T790M double mutant) was obtained from the American Type Culture Collection. NCI-H1975 cells were cultured in RPMI1640 medium containing 10% fetal bovine serum and 2 mM glutamine. The cells were grown at 37° C. in a humidified incubator with 5% CO2.
(§1) The number of viable cells in the culture was measured according to the protocol described in Promega's Cell Titer-Glo Luminescent cell Viability Assay (Promega catalog number #G7570). 90 μl of cells (8,000 cells/well) were cultured in growth medium in a Corning black transparent bottom 96-well plate, and cultured in a 5% CO2 humidified incubator at 37° C. overnight. The compound serially diluted in 100% DMSO was added to the cells using a pipette, and the cells were incubated for another 72 hours. 100 μl of the mixed Cell Titer-Glo reagent was added to the cells in the 96-well culture plate to lyse the cells and mix gently. Subsequently, the […] was detected on the Envision microplate detector to obtain the data of each compound. Finally, the data was input into a suitable software package (such as Prism) for curve fitting analysis.

BaF3 (EGFR/D770insSVD) = target: T1, BaF3 (EGFR/D770insSVD) (Homo sapiens, UniProt P00533, cells depend on it, form not given); assay: Test 13: EGFR exon 20 inserted D770insSVD cell proliferation test; conditions: A763insFQEA, V769insASV, D770insSVD (tests 13-15), in words
T1 construct: other: A763insFQEA, V769ins
T1 sequence (P00533 25-1210 limits assumed, stated change not applied): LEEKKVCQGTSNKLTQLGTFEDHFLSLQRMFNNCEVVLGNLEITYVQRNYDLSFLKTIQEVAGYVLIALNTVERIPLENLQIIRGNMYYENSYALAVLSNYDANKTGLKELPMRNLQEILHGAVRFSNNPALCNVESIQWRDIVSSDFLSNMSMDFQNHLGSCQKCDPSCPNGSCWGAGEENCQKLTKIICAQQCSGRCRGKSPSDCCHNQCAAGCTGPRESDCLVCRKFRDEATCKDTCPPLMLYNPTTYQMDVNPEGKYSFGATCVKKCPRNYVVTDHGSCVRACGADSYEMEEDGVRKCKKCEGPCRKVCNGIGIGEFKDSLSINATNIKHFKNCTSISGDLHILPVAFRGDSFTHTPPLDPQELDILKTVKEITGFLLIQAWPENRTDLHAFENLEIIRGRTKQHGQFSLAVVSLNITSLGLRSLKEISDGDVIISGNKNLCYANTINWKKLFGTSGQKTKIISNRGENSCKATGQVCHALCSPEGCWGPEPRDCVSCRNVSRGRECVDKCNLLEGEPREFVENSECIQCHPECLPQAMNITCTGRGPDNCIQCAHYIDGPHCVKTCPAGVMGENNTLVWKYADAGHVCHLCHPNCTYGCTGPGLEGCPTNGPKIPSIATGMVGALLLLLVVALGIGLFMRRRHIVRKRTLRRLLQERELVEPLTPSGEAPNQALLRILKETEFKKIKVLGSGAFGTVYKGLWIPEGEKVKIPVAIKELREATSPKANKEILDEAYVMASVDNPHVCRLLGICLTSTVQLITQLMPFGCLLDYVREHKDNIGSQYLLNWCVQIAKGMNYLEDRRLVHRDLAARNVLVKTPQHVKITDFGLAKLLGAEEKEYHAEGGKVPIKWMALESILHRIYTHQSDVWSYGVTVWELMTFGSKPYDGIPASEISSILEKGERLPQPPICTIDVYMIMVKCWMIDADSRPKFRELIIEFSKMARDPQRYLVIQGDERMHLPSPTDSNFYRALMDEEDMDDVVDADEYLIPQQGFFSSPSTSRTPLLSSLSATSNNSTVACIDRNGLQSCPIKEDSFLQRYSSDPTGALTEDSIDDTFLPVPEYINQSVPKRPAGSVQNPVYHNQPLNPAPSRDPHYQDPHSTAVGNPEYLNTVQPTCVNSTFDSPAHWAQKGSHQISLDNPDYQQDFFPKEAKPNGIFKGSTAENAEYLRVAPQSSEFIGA
Protocol: Test 13: EGFR Exon 20 Inserted D770insSVD Cell Proliferation Test
as §1, with “(3,000” for “(8,000”

BaF3 (EGFR-D770insSVD) = BaF3 (EGFR-D770insSVD) (Homo sapiens, UniProt P00533, DUP768-770, cells depend on it); assay: Test 2: BaF3 (EGFR-D770insSVD) cell proliferation test; conditions: 72 hours, Cell Titer-Glo, read-out: Test 2 - IC50
Chain of BaF3 (EGFR-D770insSVD) (P00533 with tags, fused parts or gaps DUP768-770): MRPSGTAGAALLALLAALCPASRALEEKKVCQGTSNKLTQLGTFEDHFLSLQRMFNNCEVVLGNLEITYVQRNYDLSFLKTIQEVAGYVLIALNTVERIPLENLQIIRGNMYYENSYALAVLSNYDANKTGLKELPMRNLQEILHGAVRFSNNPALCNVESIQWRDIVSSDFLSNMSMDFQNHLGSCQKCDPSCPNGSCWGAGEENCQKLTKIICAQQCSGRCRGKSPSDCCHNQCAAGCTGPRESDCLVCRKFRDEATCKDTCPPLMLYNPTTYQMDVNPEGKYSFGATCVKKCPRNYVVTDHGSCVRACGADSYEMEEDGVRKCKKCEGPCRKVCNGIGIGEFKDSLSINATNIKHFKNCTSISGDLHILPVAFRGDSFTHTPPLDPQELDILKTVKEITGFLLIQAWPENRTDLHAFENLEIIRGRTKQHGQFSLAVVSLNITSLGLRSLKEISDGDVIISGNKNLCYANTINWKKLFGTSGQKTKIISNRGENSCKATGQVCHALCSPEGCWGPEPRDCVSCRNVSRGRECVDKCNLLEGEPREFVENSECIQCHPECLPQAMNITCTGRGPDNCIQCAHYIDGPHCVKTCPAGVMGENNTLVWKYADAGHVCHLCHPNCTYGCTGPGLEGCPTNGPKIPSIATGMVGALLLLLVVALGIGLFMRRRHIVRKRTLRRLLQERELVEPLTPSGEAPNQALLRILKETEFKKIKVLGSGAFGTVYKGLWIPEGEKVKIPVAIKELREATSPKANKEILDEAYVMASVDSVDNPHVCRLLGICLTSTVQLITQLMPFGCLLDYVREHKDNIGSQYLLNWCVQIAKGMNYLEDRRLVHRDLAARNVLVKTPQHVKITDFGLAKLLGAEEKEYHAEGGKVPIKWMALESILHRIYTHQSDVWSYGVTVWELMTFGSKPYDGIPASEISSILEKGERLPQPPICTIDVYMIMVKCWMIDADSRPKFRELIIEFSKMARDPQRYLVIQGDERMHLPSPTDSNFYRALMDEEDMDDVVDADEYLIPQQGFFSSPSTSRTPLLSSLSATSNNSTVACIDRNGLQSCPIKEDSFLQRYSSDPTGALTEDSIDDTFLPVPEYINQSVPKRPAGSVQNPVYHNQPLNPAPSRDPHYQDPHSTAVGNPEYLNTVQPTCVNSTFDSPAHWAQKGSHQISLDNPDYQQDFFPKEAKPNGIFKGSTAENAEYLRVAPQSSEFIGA
Protocol: Test 2: BaF3 (EGFR-D770insSVD) Cell Proliferation Test
BaF3 (EGFR-D770insSVD) was cultured in RPMI1640 medium containing 10% fetal bovine serum and 2 mM glutamine. The cells were grown at 37° C. in a humidified incubator with 5% CO2.
as §1, with “(3,000” for “(8,000”

BaF3 (EGFR-V769insASV) = BaF3 (EGFR-V769insASV) (Homo sapiens, UniProt P00533, DUP767-769, cells depend on it); assay: Test 4: BaF3 (EGFR-V769insASV) cell proliferation test; conditions: 72 hours, Cell Titer-Glo, read-out: Test 4 - IC50
Protocol: Test 4: BaF3 (EGFR-V769insASV) Cell Proliferation Test
BaF3 (EGFR-V769insASV) was cultured in RPMI1640 medium containing 10% fetal bovine serum and 2 mM glutamine. The cells were grown at 37° C. in a humidified incubator with 5% CO2.
as §1, with “(3,000” for “(8,000”

BaF3 (EGFR-A763insFQEA) = BaF3 (EGFR-A763insFQEA) (Homo sapiens, UniProt P00533, INS763FQEA, cells depend on it); assay: Test 3: BaF3 (EGFR-A763insFQEA) cell proliferation test; conditions: 72 hours, Cell Titer-Glo, read-out: Test 3 - IC50
Protocol: Test 3: BaF3 (EGFR-A763insFOEA) Cell Proliferation Test
BaF3 (EGFR-A763insFQEA) was cultured in RPMI1640 medium containing 10% fetal bovine serum and 2 mM glutamine. The cells were grown at 37° C. in a humidified incubator with 5% CO2.
as §1, with “(3,000” for “(8,000”

BaF3 (HER2-P780insGSP) = BaF3 (HER2-P780insGSP) (Homo sapiens, UniProt P04626, DUP778-780, cells depend on it); assay: Test 10: BaF3 (HER2-P780insGSP) cell proliferation test; conditions: 72 hours, Cell Titer-Glo, read-out: Test 10 - IC50
Protocol: Test 10: BaF3 (HER2-P780insGSP) Cell Proliferation Test
BaF3 (HER2-P780insGSP) was cultured in RPMI1640 medium containing 10% fetal bovine serum and 2 mM glutamine. The cells were grown at 37° C. in a humidified incubator with 5% CO2.
as §1, with “(3,000” for “(8,000”

BaF3 (HER2-A775insYVMA) = BaF3 (HER2-A775insYVMA) (Homo sapiens, UniProt P04626, DUP772-775, cells depend on it); assay: Test 9: BaF3 (HER2-A775insYVMA) cell proliferation test; conditions: 72 hours, Cell Titer-Glo, read-out: Test 9 - IC50
Protocol: Test 9: BaF3 (HER2-A775insYVMA) Cell Proliferation Test
BaF3 (HER2-A775insYVMA) was cultured in RPMI1640 medium containing 10% fetal bovine serum and 2 mM glutamine. The cells were grown at 37° C. in a humidified incubator with 5% CO2.
as §1, with “(3,000” for “(8,000”

BaF3 (EGFR-S768I) = BaF3 (EGFR-S768I) (Homo sapiens, UniProt P00533, S768I, cells depend on it); assay: Test 7: BaF3 (EGFR-S768I) cell proliferation test; conditions: 72 hours, Cell Titer-Glo, read-out: Test 7 - IC50
Protocol: Test 7: BaF3 (EGFR-S768I) Cell Proliferation Test
BaF3 (EGFR-S768I) was cultured in RPMI1640 medium containing 10% fetal bovine serum and 2 mM glutamine. The cells were grown at 37° C. in a humidified incubator with 5% CO2.
as §1, with “(3,000” for “(8,000”

BaF3 (EGFR-D770insNPG) = BaF3 (EGFR-D770insNPG) (Homo sapiens, UniProt P00533, INS772GNP, cells depend on it); assay: Test 6: BaF3 (EGFR-D770insNPG) cell proliferation test; conditions: 72 hours, Cell Titer-Glo, read-out: Test 6 - IC50
Chain of BaF3 (EGFR-D770insNPG) (P00533 with tags, fused parts or gaps INS772GNP): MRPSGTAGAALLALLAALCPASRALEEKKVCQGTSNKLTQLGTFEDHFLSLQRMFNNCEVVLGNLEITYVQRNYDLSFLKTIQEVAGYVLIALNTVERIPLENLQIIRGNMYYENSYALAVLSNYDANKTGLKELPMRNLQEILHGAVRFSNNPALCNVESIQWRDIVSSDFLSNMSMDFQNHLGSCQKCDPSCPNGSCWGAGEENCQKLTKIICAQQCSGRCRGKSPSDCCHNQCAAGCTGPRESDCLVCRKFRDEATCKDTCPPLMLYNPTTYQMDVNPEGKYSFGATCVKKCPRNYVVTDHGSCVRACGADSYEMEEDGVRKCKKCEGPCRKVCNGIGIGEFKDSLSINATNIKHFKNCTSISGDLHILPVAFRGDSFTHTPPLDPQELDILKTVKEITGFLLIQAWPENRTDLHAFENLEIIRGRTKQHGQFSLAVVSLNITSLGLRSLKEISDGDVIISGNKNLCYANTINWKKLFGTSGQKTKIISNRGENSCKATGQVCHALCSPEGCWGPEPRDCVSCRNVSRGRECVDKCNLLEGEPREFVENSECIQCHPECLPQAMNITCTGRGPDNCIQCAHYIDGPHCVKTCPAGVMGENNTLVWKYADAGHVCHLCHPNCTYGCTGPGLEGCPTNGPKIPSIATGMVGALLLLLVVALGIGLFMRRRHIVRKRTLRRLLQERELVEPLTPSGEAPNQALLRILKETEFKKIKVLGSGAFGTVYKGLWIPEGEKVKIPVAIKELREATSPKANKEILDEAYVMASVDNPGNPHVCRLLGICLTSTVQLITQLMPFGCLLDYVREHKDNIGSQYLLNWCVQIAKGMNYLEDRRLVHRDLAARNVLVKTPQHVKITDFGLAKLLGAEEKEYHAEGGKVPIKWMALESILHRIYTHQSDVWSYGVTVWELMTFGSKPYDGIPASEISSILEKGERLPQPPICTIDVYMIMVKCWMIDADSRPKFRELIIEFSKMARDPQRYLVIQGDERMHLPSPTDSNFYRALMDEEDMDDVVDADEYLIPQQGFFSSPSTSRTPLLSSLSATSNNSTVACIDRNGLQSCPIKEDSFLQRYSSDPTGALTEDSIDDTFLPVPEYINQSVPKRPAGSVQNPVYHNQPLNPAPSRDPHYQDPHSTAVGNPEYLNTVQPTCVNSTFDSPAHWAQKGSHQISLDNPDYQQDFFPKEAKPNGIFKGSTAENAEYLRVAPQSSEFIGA
Protocol: Test 6: BaF3 (EGFR-D770insNPG) Cell Proliferation Test
BaF3 (EGFR-D770insNPG) was cultured in RPMI1640 medium containing 10% fetal bovine serum and 2 mM glutamine. The cells were grown at 37° C. in a humidified incubator with 5% CO2.
as §1, with “(3,000” for “(8,000”

BaF3 (EGFR-L861Q) = BaF3 (EGFR-L861Q) (Homo sapiens, UniProt P00533, L861Q, cells depend on it); assay: Test 8: BaF3 (EGFR-L861Q) cell proliferation test; conditions: 72 hours, Cell Titer-Glo, read-out: Test 8 - IC50
Protocol: Test 8: BaF3 (EGFR-L8610) Cell Proliferation Test
BaF3 (EGFR-L861Q) was cultured in RPMI1640 medium containing 10% fetal bovine serum and 2 mM glutamine. The cells were grown at 37° C. in a humidified incubator with 5% CO2.
as §1, with “(3,000” for “(8,000”

BaF3 (HER2-G776insVC) = BaF3 (HER2-G776insVC) (Homo sapiens, UniProt P04626, cells depend on it, form not given); assay: Test 11: BaF3 (HER2-G776insVC) cell proliferation test; conditions: 72 hours, Cell Titer-Glo, read-out: Test 11 - IC50
Protocol: Test 11: BaF3 (HER2-G776insVC) Cell Proliferation Test
The engineered cell line BaF3 (HER2-G776insVC) was constructed by the inventor himself (for the method of cell line construction, see Jingrui Jiang et al., Cancer Res. 2005 Oct. 1; 65 (19): 8964-74; Jacqulyne P. Robichaux et al., Nat Med. 2018 May; 24 (5): 638-646). BaF3 (HER2-G776insVC) was cultured in RPMI1640 medium containing 10% fetal bovine serum and 2 mM glutamine. The cells were grown at 37° C. in a humidified incubator with 5% CO2.
as §1, with “(3,000” for “(8,000”

BaF3 (EGFR-N771insH) = BaF3 (EGFR-N771insH) (Homo sapiens, UniProt P00533, INS771H, cells depend on it); assay: Test 5: BaF3 (EGFR-N771insH) cell proliferation test; conditions: 72 hours, Cell Titer-Glo, read-out: Test 5 - IC50
Chain of BaF3 (EGFR-N771insH) (P00533 with tags, fused parts or gaps INS771H): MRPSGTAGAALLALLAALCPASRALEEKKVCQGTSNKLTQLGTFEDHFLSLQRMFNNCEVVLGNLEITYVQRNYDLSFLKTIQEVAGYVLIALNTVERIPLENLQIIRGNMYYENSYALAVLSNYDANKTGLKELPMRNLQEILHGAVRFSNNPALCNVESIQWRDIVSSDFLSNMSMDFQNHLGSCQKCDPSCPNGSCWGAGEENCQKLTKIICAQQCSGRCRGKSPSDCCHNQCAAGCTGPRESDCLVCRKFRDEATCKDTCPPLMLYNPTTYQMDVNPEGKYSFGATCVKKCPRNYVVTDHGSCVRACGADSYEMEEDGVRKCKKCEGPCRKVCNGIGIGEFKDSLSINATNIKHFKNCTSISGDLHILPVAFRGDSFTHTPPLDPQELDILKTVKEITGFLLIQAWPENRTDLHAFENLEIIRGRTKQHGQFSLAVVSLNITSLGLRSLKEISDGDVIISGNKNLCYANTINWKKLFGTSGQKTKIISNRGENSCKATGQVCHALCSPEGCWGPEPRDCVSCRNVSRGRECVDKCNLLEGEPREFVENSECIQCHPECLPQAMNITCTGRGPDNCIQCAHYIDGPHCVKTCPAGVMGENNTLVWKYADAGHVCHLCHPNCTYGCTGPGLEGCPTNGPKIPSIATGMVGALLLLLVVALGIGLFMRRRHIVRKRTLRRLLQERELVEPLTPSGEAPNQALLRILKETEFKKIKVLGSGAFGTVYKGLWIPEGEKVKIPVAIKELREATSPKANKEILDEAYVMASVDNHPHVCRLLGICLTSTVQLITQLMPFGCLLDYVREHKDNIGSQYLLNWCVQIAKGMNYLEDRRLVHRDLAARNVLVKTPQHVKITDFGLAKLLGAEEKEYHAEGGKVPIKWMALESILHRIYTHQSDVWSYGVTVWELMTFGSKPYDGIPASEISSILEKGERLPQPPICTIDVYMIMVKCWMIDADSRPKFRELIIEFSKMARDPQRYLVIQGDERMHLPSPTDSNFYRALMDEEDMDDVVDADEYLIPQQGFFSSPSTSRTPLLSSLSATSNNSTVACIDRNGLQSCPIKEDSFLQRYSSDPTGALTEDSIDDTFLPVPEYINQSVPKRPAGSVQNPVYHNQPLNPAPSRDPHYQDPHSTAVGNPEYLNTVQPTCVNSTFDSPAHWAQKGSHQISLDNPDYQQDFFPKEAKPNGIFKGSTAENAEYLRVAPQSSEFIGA
Protocol: Test 5: BaF3 (EGFR-N771insH) Cell Proliferation Test
BaF3 (EGFR-N771insH) was cultured in RPMI1640 medium containing 10% fetal bovine serum and 2 mM glutamine. The cells were grown at 37° C. in a humidified incubator with 5% CO2.
as §1, with “(3,000” for “(8,000”

| SMILES | pIC50 [1] | GI50 (BaF3 (EGFR-D770insSVD)) [µM] | GI50 (BaF3 (EGFR-V769insASV)) [µM] | GI50 (BaF3 (EGFR-A763insFQEA)) [µM] | GI50 (BaF3 (HER2-P780insGSP)) [µM] | GI50 (BaF3 (HER2-A775insYVMA)) [µM] | GI50 (BaF3 (EGFR-S768I)) [µM] | GI50 (BaF3 (EGFR-D770insNPG)) [µM] | GI50 (BaF3 (EGFR-L861Q)) [µM] | GI50 (BaF3 (HER2-G776insVC)) [µM] | GI50 (BaF3 (EGFR-N771insH)) [µM] | cell activity compared with Osimertinib (AZD9291) against EGFR exon 20 insertion mutations (BaF3 (EGFR/D770insSVD)) |
| --- | --- | --- | --- | --- | --- | --- | --- | --- | --- | --- | --- | --- |
| C=CC(=O)Nc1cc(Nc2nccc(-c3cnc4c(I)cccn34)n2)c(OC)cc1N(C)CCN(C)C [Example 4, N-(2-((2-(dimethylamino)ethyl)(methyl)amino)-4-methoxy-5-((4-(8-iodoimidazo[1,2-a]pyridin-3-yl)pyrimidin-2-yl)amino)phenyl)acrylamide] | 7.18 | 0.592 | 0.47 | 0.313 |  |  |  |  |  |  |  | significant superior cell activity over Osimertinib (AZD9291) |
| C=CC(=O)Nc1cc(Nc2nccc(-c3cnc4c(C(F)(F)F)cccn34)n2)c(OC)cc1N(C)CCN(C)C [Example 6, N-(2-((2-(dimethylamino)ethyl)(methyl)amino)-4-methoxy-5-((4-(8-trifluoromethylimidazo[1,2-a]pyridin-3-yl)pyrimidin-2-yl)amino)phenyl)acrylamide] | 7.04 | 0.518 | 0.477 | 0.277 |  |  |  |  |  |  |  | significant superior cell activity over Osimertinib (AZD9291) |
| C=CC(=O)Nc1cc(Nc2ncnc(Oc3ccc(Cl)c(OC)c3)n2)c(OC)cc1N(C)CCN(C)C [Example 12] | 7.18 | 0.183 | 0.121 | 0.0573 | 0.0478 | 0.0982 | 0.0294 | 0.0753 | 0.0172 | 0.0114 | 0.0825 |  |

The next compounds have a higher pIC50 [1] than those just listed; values first:

| pIC50 [1] | GI50 (BaF3 (EGFR-D770insSVD)) [µM] | GI50 (BaF3 (EGFR-V769insASV)) [µM] | GI50 (BaF3 (EGFR-A763insFQEA)) [µM] | GI50 (BaF3 (HER2-P780insGSP)) [µM] | GI50 (BaF3 (HER2-A775insYVMA)) [µM] | GI50 (BaF3 (EGFR-S768I)) [µM] | GI50 (BaF3 (EGFR-D770insNPG)) [µM] | GI50 (BaF3 (EGFR-L861Q)) [µM] | GI50 (BaF3 (HER2-G776insVC)) [µM] | GI50 (BaF3 (EGFR-N771insH)) [µM] | SMILES | cell activity compared with Osimertinib (AZD9291) against EGFR exon 20 insertion mutations (BaF3 (EGFR/D770insSVD)) |
| --- | --- | --- | --- | --- | --- | --- | --- | --- | --- | --- | --- | --- |
| 7.71 | 0.144 | 0.148 | 0.0426 |  |  |  |  |  |  |  | C=CC(=O)Nc1cc(Nc2nccc(-c3cnc4c(F)cccn34)n2)c(OC)cc1N(C)CCN(C)C [Example 5, N-(2-((2-(dimethylamino)ethyl)(methyl)amino)-5-((4-(8-fluoroimidazo[1,2-a]pyridin-3-yl)pyrimidin-2-yl)amino)-4-methoxyphenyl)acrylamide] | significant superior cell activity over Osimertinib (AZD9291) |
| 7.40 | 0.03 | 0.0576 | 0.0166 | 0.0116 | 0.0218 | 0.00782 | 0.0228 | 0.00582 | 0.00273 | 0.0182 | C=CC(=O)Nc1cc(Nc2ncnc(-c3cn(C)c4ccc(OC)cc34)n2)c(OC)cc1N(C)CCN(C)C [Example 8, N-(2-((2-(dimethylamino)ethyl)(methyl)amino)-4-methoxy-5-((4-(5-methoxy-1-methyl-1H-indol-3-yl)-1,3,5-triazin-2-yl)amino)phenyl)acrylamide] |  |
| 7.82 | 0.0487 | 0.0455 | 0.0143 | 0.00759 | 0.0139 | 0.00917 | 0.0128 | 0.00501 | 0.0018 | 0.0153 | C=CC(=O)Nc1cc(Nc2ncnc(-c3cn(C)c4ccc(Cl)cc34)n2)c(OC)cc1N(C)CCN(C)C [Example 9] |  |
| 7.38 | 0.0887 | 0.0886 | 0.0431 | 0.0296 | 0.0852 | 0.0136 | 0.0409 | 0.0108 | 0.00836 | 0.0356 | C=CC(=O)Nc1cc(Nc2ncnc(Oc3ccc(Cl)c(OC)c3)n2)c(OC(F)F)cc1N(C)CCN(C)C [Example 13] |  |

Reference: patent US12258344B2, “Azaaromatic amide derivatives for the treatment of cancer” (SHENZHEN FORWARD PHARMACEUTICALS CO., LTD., priority 2019, dated 2025)
